Test results reported in patent US10323012B2 (priority 2012, dated 2019).
Read-outs that look alike come from different tables or passages of the source.

What was measured:
HIV/VSV-G virions [1] = conditions: read-out: Anti-HIV Activity (EC50)
[2] = Toxicity of 4α-(N-phenyl)miliusate in mice; assay type: in vivo, BALB/c nude mice
From the text: All animal studies are approved and performed according to Animal Care and Use Guidelines of the Animal Ethics Committee at Hong Kong Baptist University and performed following Animal Care and Use guidelines set by NIH (National Institute of Health, USA). BALB/c nude mice, SPF class, male or female, 7-8 weeks old (average body weight 22 g), are purchased from Charles River Laboratories. Before the experiment, the mice are kept for one week of acclimatization to SPF class laboratory conditions. […] Every other day injections at i.p. sites are scheduled for 21 days. Weights of mice are measured twice a week until the end of the experiment.

HIV/VSV-G virions [3] = assay: in vitro; conditions: human
HIV/VSV-G virions [4] = assay: microbe, parasite or virus in culture; conditions: Human immunodeficiency virus 1, A549, in Homo sapiens, 48 h, read-out: Anti-HIV Activity (EC50)
[5] = system: HIV/HA virions (H5N1 HA and NA); assay: in vitro; conditions: human, Selective Index (CC50/IC50), anti-H5N1
[6] = system: HIV/HA virions (H5N1 HA and NA); conditions: human
[7] = system: HIV/HA virions (H5N1 HA and NA); assay: microbe, parasite or virus in culture; conditions: Human immunodeficiency virus 1, H5N1, A549, in Homo sapiens, 48 h, read-out: Anti-H5N1 Activity (EC50)
[8] = 20 and 40 mg/kg i.p., every other day for 21 days, 10 mice/group

With 4α-(N-Phenyl)miliusate the EC50 (HIV/VSV-G virions [1]) was 2.7 µM, the Health of mice [2, 8] was “all mice remained healthy” and the “Weight loss of mice” value [2, 8] was “no weight loss”. The Toxicity in mice ([2]; doses of 40 mg/kg) was “no toxicity”.
Work on 8′,10′-Dihydroxy-miliusate yielded an EC50 (HIV/VSV-G virions [1]) of 14.4 µM.
Work on 10′-Hydroxy-8′-oxo-miliusate yielded an EC50 (HIV/VSV-G virions [1]) of 4.97 µM.
In the case of `CC(=O)O[C@@H]1CCC(=O)C2(CC(=O)O[C@@H]2/C=C(\C)CCC=C(C)C)C1` (some centres unmarked) [3,4-Dihydro-miliusate], the selectivity ratio (HIV/VSV-G virions [3]) is reported as 1 and the EC50 (HIV/VSV-G virions [4]) is reported as 67 µM.
For `CO[C@@H]1CC(=O)C2(CC(=O)O[C@@H]2/C=C(\C)CCC=C(C)C)C[C@@H]1O` (some centres unmarked) [Miliusane I], the selectivity ratio [5] was 9.5, the “Selective Index (CC50/IC50), anti-H5N1” value [6] was 10 and the EC50 [7] was 0.71 µM.
